Source: patent US20260285850A1, “SUBSTITUTED OXAZOLIDINONES AND IMIDAZOLINONES AS HERBICIDES” (FMC CORPORATION, priority 2023, published 2026)

How the values were obtained:
Format in all cases: in vivo
[1] = system: ryegrass, Italian (italian ryegrass, Lolium multiflorum); experiment: Test A preemergence soil spray, visual injury rating 0-100; conditions: 10 days, 0 = no effect, 100 = complete control
Method in brief: (§1)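 Rating: visual, day 10, untreated plants as reference, 0 no effect to 100 full control. Plants were in loam-sand and were treated either preemergence via directed soil spray or postemergence at the one- to two-leaf stage.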

corn (Zea mays) [2] = experiment: as above; conditions: 10 days, 0 = no effect, 100 = complete control
Method in brief: as §1

[3] = system: wheat (Triticum aestivum); experiment: as above; conditions: 10 days, 0 = no effect, 100 = complete control
Method in brief: as §1

[4] = system: barnyardgrass (Echinochloa crus-galli); experiment: as above; conditions: 10 days, 0 = no effect, 100 = complete control
Method in brief: as §1

[5] = system: green foxtail (Setaria viridis); experiment: as above; conditions: 10 days, 0 = no effect, 100 = complete control
Method in brief: as §1

[6] = system: blackgrass (Alopecurus myosuroides); experiment: as above; conditions: 10 days, 0 = no effect, 100 = complete control
Method in brief: as §1

soybean (Glycine max) [7] = experiment: as above; conditions: 10 days, 0 = no effect, 100 = complete control
Method in brief: as §1

[8] = system: oat, wild (wild oat, Avena fatua); experiment: as above; conditions: 10 days, 0 = no effect, 100 = complete control
Method in brief: as §1

[9] = system: palmer (palmer amaranth, palmer pigweed, Amaranthus palmeri); experiment: as above; conditions: 10 days, 0 = no effect, 100 = complete control
Method in brief: as §1

[10] = system: ragweed (common ragweed, Ambrosia artemisiifolia); experiment: as above; conditions: 10 days, 0 = no effect, 100 = complete control
Method in brief: as §1

kochia (Bassia scoparia) [11] = experiment: as above; conditions: 10 days, 0 = no effect, 100 = complete control
Method in brief: as §1

[12] = system: barnyardgrass (Echinochloa crusgalli); experiment: Test B flooded paddy test, visual plant response rating 0-100; conditions: 250 g ai/ha, Flood, applied to paddy water, evaluated after 13 days
Method in brief: (§2)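 Visual evaluation after 13 days. Water-applied treatment, 3 cm flood depth held constant, plants at 2-leaf stage at treatment.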

[13] = system: ducksalad (Heteranthera limosa); experiment: as above; conditions: 250 g ai/ha, Flood, applied to paddy water, evaluated after 13 days
Method in brief: as §2

rice (Oryza sativa) = experiment: as above; conditions: 250 g ai/ha, Flood, applied to paddy water, evaluated after 13 days
Method in brief: as §2

[14] = system: sedge, umbrella (small-flower umbrella sedge, Cyperus difformis); experiment: as above; conditions: 250 g ai/ha, Flood, applied to paddy water, evaluated after 13 days
Method in brief: as §2

[15] = system: ryegrass, Italian (italian ryegrass, Lolium multiflorum); experiment: Test A postemergence application, visual injury rating 0-100; conditions: 10 days
Method in brief: as §1

corn (Zea mays) [16] = experiment: as above; conditions: 10 days
Method in brief: as §1

[17] = system: wheat (Triticum aestivum); experiment: as above; conditions: 10 days
Method in brief: as §1

[18] = system: horseweed (Erigeron canadensis); experiment: as above; conditions: 10 days
Method in brief: as §1

[19] = system: barnyardgrass (Echinochloa crus-galli); experiment: as above; conditions: 10 days
Method in brief: as §1

[20] = system: galium (catchweed bedstraw, Galium aparine); experiment: as above; conditions: 10 days
Method in brief: as §1

[21] = system: green foxtail (Setaria viridis); experiment: as above; conditions: 10 days
Method in brief: as §1

[22] = system: blackgrass (Alopecurus myosuroides); experiment: as above; conditions: 10 days
Method in brief: as §1

soybean (Glycine max) [23] = experiment: as above; conditions: 10 days
Method in brief: as §1

[24] = system: oat, wild (wild oat, Avena fatua); experiment: as above; conditions: 10 days
Method in brief: as §1

[25] = system: palmer (palmer amaranth, palmer pigweed, Amaranthus palmeri); experiment: as above; conditions: 10 days
Method in brief: as §1

[26] = system: ragweed (common ragweed, Ambrosia artemisiifolia); experiment: as above; conditions: 10 days
Method in brief: as §1

kochia (Bassia scoparia) [27] = experiment: as above; conditions: 10 days
Method in brief: as §1

[28] = 31 g ai/ha, postemergence, 0 = no effect, 100 = complete control
[29] = Postemergence, 125 g ai/ha, 0 is no effect, 100 is complete control

## COC(=O)C1=CCC(NC(=O)C2(C)CN(c3cc(F)cc(F)c3)C(=O)O2)C1 (stereo not shown) [Compound 21]
[1]; 31 g ai/ha
  Ryegrass, Italian plant response rating (0-100): 50
[1]; 125 g ai/ha
  Ryegrass, Italian plant response rating (0 to 100 scale): 90
Corn (Zea mays) [2]; 31 g ai/ha
  Corn plant response rating (0-100): 60
Corn (Zea mays) [2]; 125 g ai/ha
  Corn plant response rating (0 to 100 scale): 90
[3]; 31 g ai/ha
  Wheat plant response rating (0-100): 80
[3]; 125 g ai/ha
  Wheat plant response rating (0 to 100 scale): 90
[4]; 31 g ai/ha
  Barnyardgrass plant response rating (0-100): 50
[4]; 125 g ai/ha
  Barnyardgrass plant response rating (0 to 100 scale): 100
[5]; 31 g ai/ha
  Foxtail, Green plant response rating (0-100): 90
[5]; 125 g ai/ha
  Foxtail, Green plant response rating (0 to 100 scale): 100
[6]; 31 g ai/ha
  Blackgrass plant response rating (0-100): 0
[6]; 125 g ai/ha
  Blackgrass plant response rating (0 to 100 scale): 90
Soybean (Glycine max) [7]; 31 g ai/ha
  Soybean plant response rating (0-100): 50
Soybean (Glycine max) [7]; 125 g ai/ha
  Soybean plant response rating (0 to 100 scale): 80
[8]; 31 g ai/ha
  Oat, Wild plant response rating (0-100): 60
[8]; 125 g ai/ha
  Oat, Wild plant response rating (0 to 100 scale): 80
[9]; 31 g ai/ha
  Amaranth, Palmer plant response rating (0-100): 40
[9]; 125 g ai/ha
  Amaranth, Palmer plant response rating (0 to 100 scale): 100
[10]; 31 g ai/ha
  Ragweed plant response rating (0-100): 30
[10]; 125 g ai/ha
  Ragweed plant response rating (0 to 100 scale): 30
Kochia (Bassia scoparia) [11]; 31 g ai/ha
  Kochia plant response rating (0-100): 0
Kochia (Bassia scoparia) [11]; 125 g ai/ha
  Kochia plant response rating (0 to 100 scale): 90
[12]
  Plant response rating, Barnyardgrass (0 to 100 scale, 0 is no effect and 100 is complete control): 90
[13]
  Plant response rating, Ducksalad (0 to 100 scale, 0 is no effect and 100 is complete control): 90
Rice (Oryza sativa)
  Plant response rating, Rice (0 to 100 scale, 0 is no effect and 100 is complete control): 90
[14]
  Plant response rating, Sedge, Umbrella (0 to 100 scale, 0 is no effect and 100 is complete control): 95
[15]; [28]
  Ryegrass, Italian plant response rating (0-100): 90
[15]; [29]
  Ryegrass, Italian plant response rating (0 to 100 scale): 40
Corn (Zea mays) [16]; [28]
  Corn plant response rating (0-100): 100
Corn (Zea mays) [16]; [29]
  Corn plant response rating (0 to 100 scale): 100
[17]; [28]
  Wheat plant response rating (0-100): 90
[17]; [29]
  Wheat plant response rating (0 to 100 scale): 90
[18]; [28]
  Horseweed plant response rating (0-100): 20
[18]; [29]
  Horseweed plant response rating (0 to 100 scale): 70
[19]; [28]
  Barnyardgrass plant response rating (0-100): 100
[19]; [29]
  Barnyardgrass plant response rating (0 to 100 scale): 100
[20]; [28]
  Galium plant response rating (0-100): 80
[20]; [29]
  Galium plant response rating (0 to 100 scale): 80
[21]; [28]
  Foxtail, Green plant response rating (0-100): 90
[21]; [29]
  Foxtail, Green plant response rating (0 to 100 scale): 90
[22]; [28]
  Blackgrass plant response rating (0-100): 90
[22]; [29]
  Blackgrass plant response rating (0 to 100 scale): 100
Soybean (Glycine max) [23]; [28]
  Soybean plant response rating (0-100): 80
Soybean (Glycine max) [23]; [29]
  Soybean plant response rating (0 to 100 scale): 90
[24]; [28]
  Oat, Wild plant response rating (0-100): 90
[24]; [29]
  Oat, Wild plant response rating (0 to 100 scale): 100
[25]; [28]
  Amaranth, Palmer plant response rating (0-100): 60
[25]; [29]
  Amaranth, Palmer / Pigweed, Palmer plant response rating (0 to 100 scale): 90
[26]; [28]
  Ragweed plant response rating (0-100): 40
[26]; [29]
  Ragweed plant response rating (0 to 100 scale): 70
Kochia (Bassia scoparia) [27]; [28]
  Kochia plant response rating (0-100): 80
Kochia (Bassia scoparia) [27]; [29]
  Kochia plant response rating (0 to 100 scale): 80
